The text below walks through data of patent US20260272926A1, “HIV-1P ROTEASE INHIBITORS AND USES THEREOF” (Purdue Research Foundation, priority 2023, published 2026).

The IC50 is the concentration that gives 50% inhibition. One may read the Ki as the equilibrium dissociation constant of an inhibitor or competing ligand from its target. A lower Ki goes with tighter binding.

Several values for one entry are separate records, joined by “and”; a condition that tells them apart may be missing. Equal values may be shown once. Read-outs that look alike come from different tables or passages of the source. Where only a bound is given, the exact number is not on record here.

One assay has as its system HIVLAI. Description: antiviral activity in MT-2 human-T-lymphoid cells exposed to HIVLAI. Type of assay: cell-based, HIV-1. The protocol: (§1) The ability of the nilotinib subunit, pyridinyl-pyrimidinyl amino benzamides to serve as P2 ligands in the S2 subsite of HIV-1 protease was investigated. The HIV-1 protease inhibitory activity of these compounds was evaluated in an enzyme-inhibitory assay reported by Toth and Marshall. […] We also determined the antiviral activity of these inhibitors in MT-2 human-T-lymphoid cells exposed to HIVLAI. […] We then examined a pyridyl thiazole heterocycle in place of the pyridyl pyrimidinyl scaffold in compounds 5a-d.

In the next assay the target is T1, HIV-1 protease (Human immunodeficiency virus type 1 group M subtype B, UniProt P04585).
T1 construct: catalytically active dimeric HIV-1 protease
Description: HIV-1 protease enzyme-inhibitory assay (Toth and Marshall). The class given is biochemical. Particulars: for Ki / Ki (nM): HIV-1 protease inhibitory activity. The protocol: as §1

The mark [1] stands for this setting: Human immunodeficiency virus 1, MT2, antiviral, MT-2 cells exposed to HIVLAI, Table 1 and text, read-out: IC50.
The mark [2] stands for this setting: Human immunodeficiency virus 1, MT2, antiviral, MT-2 cells exposed to HIVLAI, Table 2, read-out: IC50.
Where [3] appears, read: antiviral, MT-2 cells exposed to HIVLAI, Table 1 and text.

Take `Cc1ccc(C(=O)N[C@@H](Cc2ccccc2)[C@H](O)CN(CC(C)C)S(=O)(=O)c2ccc(N)cc2)cc1Nc1nccc(-c2cccnc2)n1` [Compound 5b, N-((2S,3R)-4-((4-amino-N-isobutylphenyl)sulfonamido)-3-hydroxy-1-phenylbutan-2-yl)-4-methyl-3-((4-(pyridin-3-yl)pyrimidin-2-yl)amino)benzamide]: the IC50 with HIVLAI (antiviral, MT-2 cells exposed to HIVLAI, Table 1 and text, read-out: IC50) worked out at 66.8 nM. At HIV-1 protease, this molecule returned a Ki of 0.17 nM.
As for `COc1ccc(S(=O)(=O)N(CC(C)C)C[C@@H](O)[C@H](Cc2ccccc2)NC(=O)c2ccc(C)c(Nc3nc(-c4cccnc4)cs3)c2)cc1` [Compound 5e, N-((2S,3R)-3-hydroxy-4-((N-isobutyl-4-methoxyphenyl)sulfonamido)-1-phenylbutan-2-yl)-4-methyl-3-((4-(pyridin-3-yl)thiazol-2-yl)amino)benzamide], the half-inhibitory concentration (IC50) with HIVLAI (setting [1]) turned out to be 390 nM. This molecule also gave a Ki on HIV-1 protease of 38.3 nM.
For the molecule `COc1ccc(S(=O)(=O)N(CC(C)C)C[C@@H](O)[C@H](Cc2ccccc2)NC(=O)c2cccc(Nc3nc(C)cs3)c2C)cc1` [Compound 5k, N-((2S,3R)-3-hydroxy-4-((N-isobutyl-4-methoxyphenyl)sulfonamido)-1-phenylbutan-2-yl)-2-methyl-3-((4-methylthiazol-2-yl)amino)benzamide], in the assay with HIVLAI (setting [2]), the IC50 was over 1000 nM. Also, on HIV-1 protease, the inhibitory constant (Ki) stood at 71.9 nM.
As to `COc1ccc(S(=O)(=O)N(CC(C)C)C[C@@H](O)[C@H](Cc2ccccc2)NC(=O)c2cc(C)cc(Nc3nc(C)cs3)c2)cc1` [Compound 5l, N-((2S,3R)-3-hydroxy-4-((N-isobutyl-4-methoxyphenyl)sulfonamido)-1-phenylbutan-2-yl)-3-methyl-5-((4-methylthiazol-2-yl)amino)benzamide], the half-inhibitory concentration (IC50) in the assay on HIVLAI (setting [2]) was over 1000 nM. The inhibitory constant (Ki) on HIV-1 protease was 80 nM.
Consider `COc1ccc(S(=O)(=O)N(CC(C)C)C[C@@H](O)[C@H](Cc2ccccc2)NC(=O)c2cccc(Nc3nc(-c4cccnc4)cs3)c2)cc1`, for which the “IC50 (nM)” value in the assay on HIVLAI (setting [3]) was “Low nM”. Besides, the “Ki (nM)” value at HIV-1 protease is reported as “Low nM”.
With `CC(C)CN(C[C@@H](O)[C@H](Cc1ccccc1)NC(=O)c1cccc(Nc2nc(-c3cccnc3)cs2)c1)S(=O)(=O)c1ccc2nc(NC3CC3)sc2c1`, in the assay with HIVLAI (setting [3]), the “IC50 (nM)” value is reported as “Low nM”. On HIV-1 protease, the “Ki (nM)” value was “Low nM”.
For `COc1ccc(S(=O)(=O)N(CC(C)C)C[C@@H](O)[C@H](Cc2ccccc2)NC(=O)c2cc(C)cc(Nc3nc(-c4cccnc4)cs3)c2)cc1` [Compound 5g, N-((2S,3R)-3-hydroxy-4-((N-isobutyl-4-methoxyphenyl)sulfonamido)-1-phenylbutan-2-yl)-3-methyl-5-((4-(pyridin-3-yl)thiazol-2-yl)amino)benzamide], in the assay on HIVLAI (setting [1]), the IC50 was over 1000 nM. Further, the affinity at HIV-1 protease, expressed as Ki, was 185 nM.
In the assay with HIVLAI (Human immunodeficiency virus 1, MT2), `COc1ccc(S(=O)(=O)N(CC(C)C)C[C@@H](O)[C@H](Cc2ccccc2)NC(=O)c2ccc(C)c(Nc3nc(C)cs3)c2)cc1` [Compound 5j, N-((2S,3R)-3-hydroxy-4-((N-isobutyl-4-methoxyphenyl)sulfonamido)-1-phenylbutan-2-yl)-4-methyl-3-((4-methylthiazol-2-yl)amino)benzamide] displayed an IC50 of over 1000 nM. The “antiviral activity (in words)” value in the assay with HIVLAI (MT-2 cells exposed to HIVLAI) is “did not show any appreciable antiviral activity”. Further, the inhibition constant (Ki) on HIV-1 protease is 26 nM and 26.5 nM.
Consider `COc1ccc(S(=O)(=O)N(CC(C)C)C[C@@H](O)[C@H](Cc2ccccc2)NC(=O)c2cccc(Nc3nc(-c4cccnc4)cs3)c2C)cc1` [Compound 5f, N-((2S,3R)-3-hydroxy-4-((N-isobutyl-4-methoxyphenyl)sulfonamido)-1-phenylbutan-2-yl)-2-methyl-3-((4-(pyridin-3-yl)thiazol-2-yl)amino)benzamide], for which the 50% inhibitory concentration (IC50) with HIVLAI (setting [1]) is over 1000 nM. Besides, the “antiviral activity (in words)” value in the assay on HIVLAI (MT-2 cells exposed to HIVLAI) is “did not exhibit any appreciable antiviral activity”. The same molecule showed a Ki on HIV-1 protease of 19.3 nM.
As for `COCc1csc(Nc2ccc(C)c(C(=O)N[C@@H](Cc3ccccc3)[C@H](O)CN(CC(C)C)S(=O)(=O)c3ccc(OC)cc3)c2)n1` [Compound 5p, N-((2S,3R)-3-hydroxy-4-((N-isobutyl-4-methoxyphenyl)sulfonamido)-1-phenylbutan-2-yl)-5-((4-(methoxymethyl)thiazol-2-yl)amino)-2-methylbenzamide], the 50% inhibitory concentration (IC50) with HIVLAI (setting [1]) and in the assay on HIVLAI (setting [2]) was 630 nM each time. At HIV-1 protease, the inhibition constant (Ki) worked out at 18 nM.
Consider `COc1ccc(S(=O)(=O)N(CC(C)C)C[C@@H](O)[C@H](Cc2ccccc2)NC(=O)c2cccc(Nc3nc(C(F)(F)F)cs3)c2C)cc1` [Compound 5o, N-((2S,3R)-3-hydroxy-4-((N-isobutyl-4-methoxyphenyl)sulfonamido)-1-phenylbutan-2-yl)-2-methyl-3-((4-(trifluoromethyl)thiazol-2-yl)amino)benzamide], for which the half-maximal inhibitory concentration (IC50) in the assay with HIVLAI (setting [2]) was over 1000 nM. The inhibition constant (Ki) on HIV-1 protease worked out at 72 nM.
Turning to `COc1ccc(S(=O)(=O)N(CC(C)C)C[C@@H](O)[C@H](Cc2ccccc2)NC(=O)c2cc(Nc3nc(-c4cccnc4)cs3)ccc2C)cc1` [Compound 5h, N-((2S,3R)-3-hydroxy-4-((N-isobutyl-4-methoxyphenyl)sulfonamido)-1-phenylbutan-2-yl)-2-methyl-5-((4-(pyridin-3-yl)thiazol-2-yl)amino)benzamide], the IC50 in the assay with HIVLAI (setting [1]) amounted to 580 nM. Besides, the inhibition constant Ki at HIV-1 protease amounted to 8.7 nM.
On to `Cc1ccc(C(=O)N[C@@H](Cc2ccccc2)[C@H](O)CN(CC(C)C)S(=O)(=O)c2ccc3nc(NC4CC4)sc3c2)cc1Nc1cc(-c2cccnc2)ncn1`, for which the “IC50 (nM)” value in the assay on HIVLAI (setting [3]) was “Low nM”. For the same molecule, on HIV-1 protease, the “Ki (nM)” value is reported as “Low nM”.
In the case of `COc1ccc(S(=O)(=O)N(CC(C)C)C[C@@H](O)[C@H](Cc2ccccc2)NC(=O)c2cc(Nc3nc(C)cs3)ccc2C)cc1` [Compound 5m, N-((2S,3R)-3-hydroxy-4-((N-isobutyl-4-methoxyphenyl)sulfonamido)-1-phenylbutan-2-yl)-2-methyl-5-((4-methylthiazol-2-yl)amino)benzamide], the IC50 with HIVLAI (setting [2]) was over 1000 nM. This molecule also displayed a Ki at HIV-1 protease of 75.9 nM.
Consider `COc1ccc(S(=O)(=O)N(CC(C)C)C[C@@H](O)[C@H](Cc2ccccc2)NC(=O)c2ccc(C)c(Nc3nc(-c4cccnc4)cs3)c2C)cc1` [Compound 5i, N-((2S,3R)-3-hydroxy-4-((N-isobutyl-4-methoxyphenyl)sulfonamido)-1-phenylbutan-2-yl)-2,4-dimethyl-3-((4-(pyridin-3-yl)thiazol-2-yl)amino)benzamide], for which the IC50 in the assay with HIVLAI (setting [1]) stood at 510 nM.
For the molecule `Cc1ccc(C(=O)N[C@@H](Cc2cc(F)cc(F)c2)[C@H](O)CN(CC(C)C)S(=O)(=O)c2ccc(N)cc2)cc1Nc1nccc(-c2cccnc2)n1` [Compound 5d, N-((2S,3R)-4-((4-amino-N-isobutylphenyl)sulfonamido)-1-(3,5-difluorophenyl)-3-hydroxybutan-2-yl)-4-methyl-3-((4-(pyridin-3-yl)pyrimidin-2-yl)amino)benzamide], the concentration for half-maximal inhibition (IC50) with HIVLAI (setting [1]) was 212 nM. Further, the “reduction in antiviral activity” value with HIVLAI (over compound 5c) amounted to 3 fold. On HIV-1 protease, this molecule displayed a Ki of 1.92 nM.
Take `COc1ccc(S(=O)(=O)N(CC(C)C)C[C@@H](O)[C@H](Cc2ccccc2)NC(=O)c2ccc(C)c(Nc3nc(C(F)(F)F)cs3)c2)cc1` [Compound 5n, N-((2S,3R)-3-hydroxy-4-((N-isobutyl-4-methoxyphenyl)sulfonamido)-1-phenylbutan-2-yl)-4-methyl-3-((4-(trifluoromethyl)thiazol-2-yl)amino)benzamide]: the IC50 in the assay with HIVLAI (setting [2]) was over 1000 nM. The Ki on HIV-1 protease was 60.3 nM.
With `COc1ccc(S(=O)(=O)N(CC(C)C)C[C@@H](O)[C@H](Cc2ccccc2)NC(=O)c2ccc(C)c(Nc3nccc(-c4cccnc4)n3)c2)cc1` [Compound 5a, N-((2S,3R)-3-hydroxy-4-((N-isobutyl-4-methoxyphenyl)sulfonamido)-1-phenylbutan-2-yl)-4-methyl-3-((4-(pyridin-3-yl)pyrimidin-2-yl)amino)benzamide], the concentration for half-maximal inhibition (IC50) in the assay with HIVLAI (setting [1]) worked out at 154 nM. The Ki on HIV-1 protease was determined as 0.028 nM. In addition, the “enzyme inhibitory Ki” value on HIV-1 protease (text b193) stood at 28 PM.
For the molecule `COc1ccc(S(=O)(=O)N(CC(C)C)C[C@@H](O)[C@H](Cc2cc(F)cc(F)c2)NC(=O)c2ccc(C)c(Nc3nccc(-c4cccnc4)n3)c2)cc1` [Compound 5c, N-((2S,3R)-1-(3,5-difluorophenyl)-3-hydroxy-4-((N-isobutyl-4-methoxyphenyl)sulfonamido)butan-2-yl)-4-methyl-3-((4-(pyridin-3-yl)pyrimidin-2-yl)amino)benzamide], the half-inhibitory concentration (IC50) in the assay on HIVLAI (setting [1]) worked out at 124 nM. The same molecule returned a Ki at HIV-1 protease of 0.58 nM.
